Laboratory results published in PMC7157764, “Avoiding Drug Resistance by Substrate Envelope-Guided Design: Toward Potent and Robust HCV NS3/4A Protease Inhibitors” (mBio, 2020).

Assays:
[1] = target: T1, HCV NS3/4A protease GT1a WT (Hepatitis C virus genotype 1a, UniProt P27958, C1185S); assay type: biochemical; settings: for Ki: 2 nM protease preincubated 1 h at room temperature with inhibitor, pH 7.5, 200 nM fluorogenic substrate, Morrison equation global fit, error from global fit of at least three replicates; for Fold increase in potency against WT compared with the parent compound: relative to parent compound, WT protease
T1 construct: His tag (cleaved yes); made in house; host or cells: Escherichia coli BL21(DE3), pET28a
T1 sequence (P27958 1027-1208 C1185S): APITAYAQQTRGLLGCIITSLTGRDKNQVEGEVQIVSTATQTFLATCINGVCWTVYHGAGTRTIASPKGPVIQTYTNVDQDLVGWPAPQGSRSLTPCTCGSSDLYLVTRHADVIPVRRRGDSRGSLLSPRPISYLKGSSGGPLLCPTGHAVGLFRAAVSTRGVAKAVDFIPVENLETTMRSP

[2] = target: T2, HCV NS3/4A protease D168A variant (Hepatitis C virus genotype 1a, UniProt P27958, C1185S/D1194A); assay type: biochemical; settings: for Ki: 2 nM protease preincubated 1 h at room temperature with inhibitor, pH 7.5, 200 nM fluorogenic substrate, Morrison equation global fit, error from global fit of at least three replicates
T2 construct: His tag (cleaved yes); made in house; host or cells: Escherichia coli BL21(DE3), pET28a
T2 sequence (P27958 1027-1208 C1185S/D1194A): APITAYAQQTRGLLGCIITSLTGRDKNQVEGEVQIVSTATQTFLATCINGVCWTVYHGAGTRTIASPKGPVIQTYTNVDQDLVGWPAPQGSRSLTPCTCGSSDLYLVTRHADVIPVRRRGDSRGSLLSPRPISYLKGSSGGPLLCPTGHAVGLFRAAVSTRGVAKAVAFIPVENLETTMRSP

[3] = tested on: HCV NS3/4A protease D168A variant; assay type: biochemical, Hepatitis C virus genotype 1a

| SMILES | Ki [1] [nM] | Ki [2] [nM] | Fold change of Ki, D168A relative to WT [3] [fold] | Fold increase in potency against WT compared with the parent compound [1] | Fold increase in potency against D168A compared with the parent compound [2] [fold] | Fold increase in potency against D168A compared with grazoprevir [2] [fold] |
| --- | --- | --- | --- | --- | --- | --- |
| CCc1nc2ccc(OC)cc2nc1O[C@@H]1C[C@H]2C(=O)N[C@]3(C(=O)NS(=O)(=O)C4CC4)C[C@H]3/C=C\CCCCC[C@H](NC(=O)OC(C)(C)C)C(=O)N2C1 [5172-mcP1P3, reference compound] | 3.29 ± 0.52 | 82.4 ± 4.4 | – | – | – | – |
| COc1ccc2nc(C)c(O[C@@H]3C[C@H]4C(=O)N[C@]5(C(=O)NS(=O)(=O)C6(C)CC6)C[C@H]5/C=C\CCCCC[C@H](NC(=O)OC5CCCCC5)C(=O)N4C3)nc2c1 [P4-6] | 0.94 ± 0.25 | 12.7 ± 1.2 | 14 | – | – | – |
| COc1ccc2nc(C)c(O[C@@H]3C[C@H]4C(=O)N[C@]5(C(=O)NS(=O)(=O)C6(C)CC6)C[C@H]5/C=C\CCCCC[C@H](NC(=O)OC5(C)CCC5)C(=O)N4C3)nc2c1 [P4-2] | 1.4 ± 0.13 | 46.4 ± 3.4 | 33 | 4 fold | – | – |
| COc1ccc2nc(C)c(O[C@@H]3C[C@H]4C(=O)N[C@]5(C(=O)NS(=O)(=O)C6(C)CC6)C[C@H]5/C=C\CCCCC[C@H](NC(=O)OC5(C)CC5)C(=O)N4C3)nc2c1 [P4-1] | 4.44 ± 0.3 | 27.9 ± 4.1 | 6 | – | ~2 | – |
| COC(=O)N[C@H](C(=O)N[C@H]1CCCCC/C=C\[C@@H]2C[C@@]2(C(=O)NS(=O)(=O)C2(C)CC2)NC(=O)[C@@H]2C[C@@H](Oc3nc4cc(OC)ccc4nc3C)CN2C1=O)C(C)C [P4P5-1B] | 13 ± 0.8 | 102 ± 6.8 | 8 | – | – | – |
| COc1ccc2nc(C)c(O[C@@H]3C[C@H]4C(=O)N[C@]5(C(=O)NS(=O)(=O)C6(C)CC6)C[C@H]5/C=C\CCCCC[C@H](NC(=O)OC5C[C@@H]6C[C@@H]6C5)C(=O)N4C3)nc2c1 (stereo partly shown) [P4-7] | 0.54 ± 0.2 | 2.3 ± 0.7 | 4 | approximately 6.5 fold | ~20 | ~20 |
| CCC1(OC(=O)N[C@H]2CCCCC/C=C\[C@@H]3C[C@@]3(C(=O)NS(=O)(=O)C3(C)CC3)NC(=O)[C@@H]3C[C@@H](Oc4nc5cc(OC)ccc5nc4C)CN3C2=O)CCCC1 [P4-5] | 1.29 ± 0.05 | 21.7 ± 2.3 | 17 | – | – | – |
| COC(=O)NC1(C(=O)N[C@H]2CCCCC/C=C\[C@@H]3C[C@@]3(C(=O)NS(=O)(=O)C3(C)CC3)NC(=O)[C@@H]3C[C@@H](Oc4nc5cc(OC)ccc5nc4C)CN3C2=O)CCCC1 [P4P5-5] | 31 ± 2.74 | 931 ± 70 | 30 | – | – | – |
